According to patent US10233179B2, “Thiazoles and uses thereof” (AbbVie Inc., priority 2013, dated 2019):

Assays:
HEp-2 cells = test: Cytotoxicity assay (MTT) in parallel with the antiviral assay; format: cell-based
Method: HEp-2 cells and RSV (Group A, Long Strain) were obtained from the American Type Culture Collection (Manassas, Va.). Cytotoxicity of the compounds was determined in experiments done in parallel with the antiviral assays. To do this, 100 μL of assay medium was added to the wells of HEp-2 cells pretreated with 100 μL serially diluted compounds as described above. After 4 days of incubation, the viability of the cells was determined by the MTT assay in the same way as detailed in the “Antiviral Assay” method. Results were expressed as 50% toxicity dose (TD50) values. Compounds were tested to determine both their antiviral and toxicity to determine their therapeutic window. Determination of the EC50 and TD50 of these active compounds were repeated one additional time to confirm the window.

[1] = tested on: RSV (Group A, Long Strain); test: Antiviral cytopathic effect (CPE) protection assay, MTT readout; format: cell-based; conditions: human respiratory syncytial virus, 96 h; HEp-2 cells, 0.2 MOI RSV, 4 days incubation, protection from CPE by MTT
Method: HEp-2 cells and RSV (Group A, Long Strain) were obtained from the American Type Culture Collection (Manassas, Va.).
A cytopathic effect (CPE) protection assay was performed to determine the ability of a compound to protect the cells from viral infection and thus the CPE induced by viral infection. 96-Well plates were first seeded with 3×10^3 HEp-2 cells per well in Dulbecco's modified Eagle's medium (DMEM) containing 10% fetal bovine serum (FBS). One day after the cells were seeded, they were preincubated with serial dilutions of compounds prepared in 100 μL assay medium (DMEM mixed with F12 medium at a 1:1 ratio, supplemented with 2% FBS and 1 mM sodium pyruvate) for 1 hour at 37° C. 100 μL of assay medium containing 0.2 multiplicity of infection (MOI) of RSV was then added to each well of cells. In addition to wells containing infected cells incubated with compounds, each plate also contained replicates of two kinds of controls: (1) Virus control contained cells infected with 0.2 MOI of RSV in assay medium, (2) Uninfected cell control contained cells incubated with assay medium only. After 4 days of incubation at 37° C., the viability of cells was assessed using MTT (Thiazolyl blue tetrazolium bromide, Sigma). A stock solution of MTT, at a concentration of 4 mg/mL in phosphate-buffered saline, was added to all wells at 25 μL per well. Plates were further incubated for 4 hours, and each well was then treated with 50 μL of a solution containing 20% sodium dodecyl sulfate (SDS) and 0.02 N HCl. After an overnight incubation, the plates were measured on a BioTek® microtiter plate reader at wavelengths of 570 nm and 650 nm. The MTT detection is based on the fact that viable (uninfected) cells can reduce the tetrazolium salts into colored formazan products, which can then be quantitated by spectrometry. Based on the spectrometric absorbance of each sample, the percent of protection from CPE, which is an indicator of protection from viral infection, can be calculated for each compound and the 50% effective concentrations (EC50) can be calculated using a nonlinear regression curve fitting equation provided by the GraphPad Prism® 4 software.
Compounds were tested to determine both their antiviral and toxicity to determine their therapeutic window. Determination of the EC50 and TD50 of these active compounds were repeated one additional time to confirm the window.

[2] = uninfected HEp-2 cells, 4 days incubation, MTT viability

Row | EC50 [1] [nM] | SMILES | MTT TD50 (HEp-2 cells; human, 4 days) [µM] | MTT TD50 (HEp-2 cells; [2]) [µM]
1 | > 32000 | Clc1ccc(CN(Cc2cccn2-c2nncs2)Cc2cccn2-c2nncs2)c(Cl)c1 [Example 42, 1-(2,4-dichlorophenyl)-N,N-bis{[1-(1,3,4-thiadiazol-2-yl)-1H-pyrrol-2-yl]methyl}methanamine] |  | 32
2 | > 32000 | Cc1cc(N(Cc2cccn2-c2nncs2)Cc2cccn2-c2nncs2)n(-c2ccc(F)cc2)n1 [Example 43, 1-(4-fluorophenyl)-3-methyl-N,N-bis{[1-(1,3,4-thiadiazol-2-yl)-1H-pyrrol-2-yl]methyl}-1H-pyrazol-5-amine] |  | >32
3 | 120 | FC(F)(F)c1cccc(CN(Cc2cccn2-c2nccs2)Cc2cccn2-c2nccs2)c1 [Example 44, 1-[1-(1,3-thiazol-2-yl)-1H-pyrrol-2-yl]-N-{[1-(1,3-thiazol-2-yl)-1H-pyrrol-2-yl]methyl}-N-[3-(trifluoromethyl)benzyl]methanamine] |  | 38
4 | 960 | N#Cc1ccc(CN(Cc2cccn2-c2nccs2)Cc2cccn2-c2nccs2)cc1 [Example 45, 4-[(bis{[1-(1,3-thiazol-2-yl)-1H-pyrrol-2-yl]methyl}amino)methyl]benzonitrile] |  | >32
5 | 550 | CC(c1ccc(Cl)c(Cl)c1)N(Cc1cccn1-c1nccs1)Cc1cccn1-c1nccs1 (centres unmarked) [Example 46, 1-(3,4-dichlorophenyl)-N,N-bis{[1-(1,3-thiazol-2-yl)-1H-pyrrol-2-yl]methyl}ethanamine] |  | >32
6 | 15 | Clc1ccccc1CN(Cc1cccn1-c1nccs1)Cc1cccn1-c1nccs1 [Example 47, 1-(2-chlorophenyl)-N,N-bis{[1-(1,3-thiazol-2-yl)-1H-pyrrol-2-yl]methyl}methanamine] |  | 7.0
7 | 110 | C[C@H](c1ccccc1Cl)N(Cc1cccn1-c1nccs1)Cc1cccn1-c1nccs1 [Example 48, (1R)-1-(2-chlorophenyl)-N,N-bis{[1-(1,3-thiazol-2-yl)-1H-pyrrol-2-yl]methyl}ethanamine] |  | 6.7
8 | 45 | C[C@@H](c1ccccc1Cl)N(Cc1cccn1-c1nccs1)Cc1cccn1-c1nccs1 [Example 49, (1S)-1-(2-chlorophenyl)-N,N-bis{[1-(1,3-thiazol-2-yl)-1H-pyrrol-2-yl]methyl}ethanamine] |  | 4.3
9 | > 100000 | c1cnnc(N(Cc2cccn2-c2nccs2)Cc2cccn2-c2nccs2)c1 [Example 50, N,N-bis{[1-(1,3-thiazol-2-yl)-1H-pyrrol-2-yl]methyl}pyridazin-3-amine] |  | >100

More lines, now with the values behind:

Row | SMILES | EC50 [1] [nM] | MTT TD50 (HEp-2 cells; human, 4 days) [µM] | MTT TD50 (HEp-2 cells; [2]) [µM]
10 | c1cc(CN(CCC2(c3ccncc3)CC2)Cc2cccn2-c2nncs2)n(-c2nncs2)c1 [Example 27, 2-[1-(pyridin-4-yl)cyclopropyl]-N,N-bis{[1-(1,3,4-thiadiazol-2-yl)-1H-pyrrol-2-yl]methyl}ethanamine] | 810 | >32 | 
11 | N#Cc1cc(CN(Cc2cccn2-c2nncs2)Cc2cccn2-c2nncs2)cs1 [Example 28, 4-[(bis{[1-(1,3,4-thiadiazol-2-yl)-1H-pyrrol-2-yl]methyl}amino)methyl]thiophene-2-carbonitrile] | 760 |  | >100
12 | Clc1ccc(CN(Cc2cccn2-c2nccs2)Cc2cccn2-c2nccs2)c(Cl)c1 [Example 29, 1-(2,4-dichlorophenyl)-N,N-bis{[1-(1,3-thiazol-2-yl)-1H-pyrrol-2-yl]methyl}methanamine] | 320 |  | >32
13 | COc1ccc(CN(Cc2cccn2-c2nccs2)Cc2cccn2-c2nccs2)c(OC)c1 [Example 30, 1-(2,4-dimethoxyphenyl)-N,N-bis{[1-(1,3-thiazol-2-yl)-1H-pyrrol-2-yl]methyl}methanamine] | 54 |  | 4.9
14 | c1ccc(CN(Cc2cccn2-c2nccs2)Cc2cccn2-c2nccs2)cc1 [Example 31, 1-phenyl-N,N-bis{[1-(1,3-thiazol-2-yl)-1H-pyrrol-2-yl]methyl}methanamine] | 110 |  | 5.4
15 | c1cc(CN(Cc2cccn2-c2nccs2)CC2C[C@H]3CC[C@@H]2C3)n(-c2nccs2)c1 (stereo partly drawn) [Example 32, 1-[(1R,4S)-bicyclo[2.2.1]hept-2-yl]-N,N-bis{[1-(1,3-thiazol-2-yl)-1H-pyrrol-2-yl]methyl}methanamine] | 410 |  | 4.1
16 | c1cc(CN(Cc2cccn2-c2nccs2)CC2CCCO2)n(-c2nccs2)c1 (centres unmarked) [Example 33, 1-(tetrahydrofuran-2-yl)-N,N-bis{[1-(1,3-thiazol-2-yl)-1H-pyrrol-2-yl]methyl}methanamine] | 4600 |  | 16
17 | FC(F)(F)c1ccc(CN(Cc2cccn2-c2nccs2)Cc2cccn2-c2nccs2)cc1 [Example 34, 1-[1-(1,3-thiazol-2-yl)-1H-pyrrol-2-yl]-N-{[1-(1,3-thiazol-2-yl)-1H-pyrrol-2-yl]methyl}-N-[4-(trifluoromethyl)benzyl]methanamine] | 3400 |  | 34
18 | Cc1cc(N(Cc2cccn2-c2nccs2)Cc2cccn2-c2nccs2)n(-c2ccccc2)n1 [Example 35, 3-methyl-1-phenyl-N,N-bis{[1-(1,3-thiazol-2-yl)-1H-pyrrol-2-yl]methyl}-1H-pyrazol-5-amine] | 47 |  | >32
19 | Clc1cccc(Cl)c1CN(Cc1cccn1-c1nccs1)Cc1cccn1-c1nccs1 [Example 36, 1-(2,6-dichlorophenyl)-N,N-bis{[1-(1,3-thiazol-2-yl)-1H-pyrrol-2-yl]methyl}methanamine] | 33 |  | 24
20 | Cc1ccccc1CN(Cc1cccn1-c1nccs1)Cc1cccn1-c1nccs1 [Example 37, 1-(2-methylphenyl)-N,N-bis{[1-(1,3-thiazol-2-yl)-1H-pyrrol-2-yl]methyl}methanamine] | 33 |  | 7.1
21 | Clc1cnc(CN(Cc2cccn2-c2nccs2)Cc2cccn2-c2nccs2)c(Cl)c1 [Example 38, 1-(3,5-dichloropyridin-2-yl)-N,N-bis{[1-(1,3-thiazol-2-yl)-1H-pyrrol-2-yl]methyl}methanamine] | 310 |  | 11
22 | CC(C)CN(Cc1cccn1-c1nccs1)Cc1cccn1-c1nccs1 [Example 39, 2-methyl-N,N-bis{[1-(1,3-thiazol-2-yl)-1H-pyrrol-2-yl]methyl}propan-1-amine] | 3400 |  | 8.3
23 | Fc1ccccc1CN(Cc1cccn1-c1nccs1)Cc1cccn1-c1nccs1 [Example 40, 1-(2-fluorophenyl)-N,N-bis{[1-(1,3-thiazol-2-yl)-1H-pyrrol-2-yl]methyl}methanamine] | 18 |  | 6.3
24 | Cc1c(C(C)N(Cc2cccn2-c2nccs2)Cc2ncc(-c3ccccc3)n2C)cnn1-c1cccc(F)c1 (centres unmarked) [Example 41, 1-[1-(3-fluorophenyl)-5-methyl-1H-pyrazol-4-yl]-N-[(1-methyl-5-phenyl-1H-imidazol-2-yl)methyl]-N-{[1-(1,3-thiazol-2-yl)-1H-pyrrol-2-yl]methyl}ethanamine] | > 5600 |  | 5.6
25 | c1ccc(C2(CCN(Cc3cccn3-c3nccs3)Cc3cccn3-c3nccs3)CC2)nc1 [Example 51, 2-[1-(pyridin-2-yl)cyclopropyl]-N,N-bis{[1-(1,3-thiazol-2-yl)-1H-pyrrol-2-yl]methyl}ethanamine] | 45 | 6.2 | 
